Consider five compounds from patent US20220142169A1, “INHIBITING INSECTICIDE RESISTANCE AND MAKING SUSCEPTIBLE INSECTS HYPER-SUSCEPTIBLE TO PESTICIDES” (priority 2019, published 2022).

In general, IC50 refers to the concentration needed to halve the response being measured.

The subject of assay [1] is Drosophila melanogaster DDT-resistant 91-R strain. Put plainly: DDT mortality bioassay (glass vial, 24 h) after two days of inhibitor feeding. Format: in vivo. To be noted: for LD50: 24 h; for ratio of LD50 optimal / sub-optimal rearing conditions / Resistance Ratio: DDT; for ratio of LD50 optimal / sub-optimal rearing conditions: no inhibitor; for reduction of level of DDT resistance: optimal rearing condition; for decrease of DDT resistance: sub-optimal rearing condition. The source says: (§1) Flies of 1-2 day old (females and males) were introduced into a plastic vial (28 mm×95 mm height) and fed with inhibitors mixed in 5% sucrose solution. […] After fed with inhibitor solutions for two days, 20 females or males from either the 91-R or 91-C strains were used in all DDT bioassays. To explore the effect of inhibitors, fruit flies under two different rearing conditions: optimal rearing condition and sub-optimal rearing condition were used in our study. Under optimal rearing condition, 100 pairs of flies were maintained in bottles (containing 50 ml standard medium) and allowed for laying eggs for four days. All adults were then removed to make sure the suitable density of larva. Differently, adults were not removed until emerging of next generation under sub-optimal rearing condition. Simply, optimal rearing condition provided enough food for flies, but sub-optimal rearing condition faced certain food pressure.
(§2) Briefly, various concentrations of DDT dissolved in acetone were transferred into 20 ml transparent glass vials and each rolled on its side in a fume hood till the acetone evaporated. […] Vials were capped with cotton plugs moistened with a 5% sucrose solution in distilled water. The number of dead flies were recorded after 24 hours.
(§3) For RT-qPCR, statistical analysis was performed using Student's t-test to compare the results between 91-C and 91-R. For glycogen assay and body weight, One-way ANOVA was used, and means comparisons were made by using Student's t test (p<0.05) by using SPSS software (Version 19.0; SPSS Inc., USA). The median lifespan under fed or starvation conditions were calculated using the Probit function in SPSS (Version 19.0; SPSS Inc, USA). For mortality bioassay, Probit analysis was conducted by using SPSS software (Version 19.0; SPSS Inc, USA).

Assay [2] concerns Drosophila melanogaster DDT-susceptible 91-C strain. Described as above. Format: in vivo. Particulars: for LD50: 24 h; for reduction of level of DDT resistance: optimal rearing condition; for decrease of DDT resistance: sub-optimal rearing condition.
Text: as §1, §2, §3

The next assay relates to GSK3β-PO. To be noted: listed beside gene GSK3β-PO; cited from earlier work.
The test system of another assay is Drosophila 91-C strain. Description: Cypermethrin mortality bioassay (glass vial, 24 h) after inhibitor feeding. It is filed as in vivo, Drosophila melanogaster. To be noted: for LD50: 24 h. The protocol: (§4) Adult flies were placed in bottles with instant drosophila blue diet (Formula 2-24®, carolina.com) made with inhibitor solutions for two days.
(§5) 200 μl of each concentration of solution as well as 200 μl acetone were transferred into 20 ml transparent glass vials and rolled on its side in a fume hood till the acetone completely evaporated. 20 flies of 91C, 91R and Canton-S stains were placed into vials for either female or male. Vials were capped with cotton plugs moistened with a 5% sucrose solution in distilled water. The number of dead flies were recorded after 24 hours. […] For each strain by sex combination, 8 concentrations of dosage were used including 0 control. A total of 8×3×20 flies were used for each of strain by sex combinations. For mortality bioassay, Probit analysis tool in SAS was used (SAS 9.4, SAS Ins, USA).

Another assay concerns Drosophila 91-R strain. The description is as above. To be noted: for LD50: 24 h. It is filed as in vivo, Drosophila melanogaster. Here is the method: as §4, §5
Assay [3] relates to Drosophila Canton-S strain. The assay is described as above. Format: in vivo, Drosophila melanogaster. To be noted: for LD50: 24 h. The protocol:
as §4, §5

Setting [4] is: DDT LD50, 91-R♀, optimal dietary rearing.
Where [5] appears, read: DDT LD50, 91-R♀, sub-optimal dietary rearing.
[6] abbreviates: DDT LD50, 91-R♂, optimal dietary rearing.
Where [7] appears, read: DDT LD50, 91-R♂, sub-optimal dietary rearing.
The mark [8] stands for this setting: DDT LD50, 91-C♀, optimal dietary rearing, Hys 10 mM, LiCl 20 mM fed 2 days.
The mark [9] stands for this setting: DDT LD50, 91-C♂ (so in the source), sub-optimal dietary rearing.
The mark [10] stands for this setting: DDT LD50, 91-C♂, optimal dietary rearing.

On to `Clc1ccc(C(c2ccc(Cl)cc2)C(Cl)(Cl)Cl)cc1` [DDT], for which the LD50 turned out to be 136883.00 μg/vial in assay [1] (setting [4]); 523.34 μg/vial in assay [1] (setting [5]); 66073.00 μg/vial in assay [1] (setting [6]); 143.70 μg/vial in assay [1] (setting [7]); 51.59 μg/vial in assay [2] (setting [8]); 6.77 μg/vial in assay [2] (setting [9]). In assay [2] (setting [10]), this compound registered an LD50 of 19.81 μg/vial. Moreover, the “ratio of LD50 optimal / sub-optimal rearing conditions” value in assay [1] (91-R females) amounted to 261.56; in assay [1] (91-R males) it was 459.80. In assay [2] (DDT, 91-C females, no inhibitor), the “ratio of LD50 optimal / sub-optimal rearing condition” value is 7.62.
On to `NC1=N[C@H]2c3c([nH]c(Br)c3Br)C(=O)N3CCC[C@]23N1` [Dibromocantharelline], for which the IC50 in the assay on GSK3β-PO is 3 µM.
Take `NC1=NC(=O)/C(=C2\CCNC(=O)c3[nH]c(Br)cc32)N1` [Hymenialdesine]: in the assay with GSK3β-PO, the half-maximal inhibitory concentration (IC50) was 0.01 µM.
Regarding `NN.O=S(=O)(O)O` [Hys, hydrazine sulphate], the “Synergism Ratio” value with Drosophila 91-C strain (91-C♀) turned out to be 4.39; with Drosophila 91-C strain (91-C♂) it was 5.73; in the assay on Drosophila 91-R strain (91-R♀), 3.87; with Drosophila 91-R strain (91-R♂), 3.88; in assay [3] (Canton-S ♀), 3.58; in assay [3] (Canton-S ♂), 3.78.
Consider `[Cl-].[Li+]` [LiCl, lithium chloride], for which the “reduction of level of DDT resistance” value in assay [1] (91-R females) stood at 1.6 fold; in assay [1] (91-R males) it was 20.5 fold; in assay [2] (91-C females) it was 4.2 fold; in assay [2] (91-C males), 2.7 fold. Besides, the “decrease of DDT resistance” value is 3.3 fold in assay [1] (91-R females), “no significant decreased in resistance levels” in assay [1] (91-R males), 2.3 fold in assay [2] (91-C females) and 2.3 fold in assay [2] (91-C males). Besides, the “resistance ratio reduction / decrease of DDT resistance” value in assay [1] (91-R, both sexes, optimal rearing conditions) is given as 1.6-20.5 fold. The LD50 came out at 83375.00 μg/vial in assay [1] (setting [4]); 157.63 μg/vial in assay [1] (setting [5]); 3224.00 μg/vial in assay [1] (setting [6]); 126.69 μg/vial in assay [1] (setting [7]); 0.94 μg/vial in assay [2] (DDT LD50, 91-C♀ (so in the source), sub-optimal dietary rearing); 12.17 μg/vial in assay [2] (setting [8]). For the same compound, the LD50 in assay [2] (setting [9]) was 2.96 μg/vial; in assay [2] (setting [10]), 7.22 μg/vial; in the assay with Drosophila 91-C strain (91-C♀) it was 0.13 μg/vial; with Drosophila 91-C strain (91-C♂) it was 0.03 μg/vial; in the assay on Drosophila 91-R strain (91-R♀) it was 0.17 μg/vial; in the assay with Drosophila 91-R strain (91-R♂), 0.08 μg/vial. For the same compound, the LD50 amounted to 0.78 μg/vial in assay [3] (Canton-S ♀, Hys 10 mM, LiCl 20 mM in diet 2 days) and 0.9 μg/vial in assay [3] (Canton-S ♂). Moreover, the “Resistance Ratio” value was determined as 1.64 in assay [1] (91-R♀, optimal rearing); 3.37 in assay [1] (91-R♀, sub-optimal rearing); 20.49 in assay [1] (91-R♂, optimal rearing); 1.13 in assay [1] (91-R♂, sub-optimal rearing); 2.26 in assay [2] (DDT, 91-C♀ (so in the source), sub-optimal rearing); 2.29 in assay [2] (DDT, 91-C♂ (so in the source), sub-optimal rearing). For the same compound, the “Resistance Ratio” value in assay [2] (DDT, 91-C♂, optimal rearing) is given as 2.74; in assay [2] (control LD50 vs inhibitor-fed, DDT, 91-C♀, optimal rearing) it was 4.24. For the same compound, the “Synergism Ratio” value with Drosophila 91-C strain (91-C♀) was determined as 4.93; in the assay with Drosophila 91-C strain (91-C♂), 11.92; in the assay on Drosophila 91-R strain (91-R♀), 4.58; in the assay with Drosophila 91-R strain (91-R♂) it was 3.36; in assay [3] (Canton-S ♀), 0.74; in assay [3] (Canton-S ♂), 0.60. Moreover, the IC50 with GSK3β-PO was 2000 µM.
